Measured values published in PubChem BioAssay AID328 (DTP/NCI, 2004).
Where “and” joins values, the source holds several entries; their conditions need not be identical. Identical values can stand only once. Toxic doses and inconclusive results are not listed.

System: BDF1 mice, P388 leukemia ip, median survival T/C
Assay: NCI In Vivo Anticancer Drug Screen. Data for tumor model P388 Leukemia (intraperitoneal) in B6D2F1 (BDF1) mice
Conditions: endpoint: median survival time, higher = longer survival
Procedure, shortened: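 Antitumour effect was judged in vivo: survival in drug-treated mice, normalised to that of vehicle-dosed controls, gives the reported T/C.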

[1] = dose: 100.0 mg/kg/injection, schedule: Q01DX009 (ip), vehicle: saline
[2] = dose: 100.0 mg/kg/injection, schedule: Q04DX003 (ip), vehicle: saline
[3] = dose: 200.0 mg/kg/injection, schedule: Q01DX009 (ip), vehicle: saline
[4] = dose: 200.0 mg/kg/injection, schedule: Q04DX003 (ip), vehicle: saline
[5] = dose: 400.0 mg/kg/injection, schedule: Q04DX003 (ip), vehicle: saline
[6] = dose: 50.0 mg/kg/injection, schedule: Q01DX009 (ip), vehicle: saline
[7] = dose: 25.0 mg/kg/injection, schedule: Q01DX009 (ip), vehicle: saline with Tween-80
[8] = dose: 50.0 mg/kg/injection, schedule: Q01DX009 (ip), vehicle: saline with Tween-80
[9] = dose: 100.0 mg/kg/injection, schedule: Q01DX009 (ip), vehicle: saline with Tween-80
[10] = dose: 25.0 mg/kg/injection, schedule: Q01DX009 (ip), vehicle: saline
[11] = dose: 50.0 mg/kg/injection, schedule: Q04DX003 (ip), vehicle: saline
[12] = dose: 400.0 mg/kg/injection, schedule: Q01DX009 (ip), vehicle: saline

For `COc1cc(N2CCOCC2)ccc1[N+](=O)[O-]`, the T/C [1] was 91 % of control, the T/C [2] was 109 % of control and the T/C [3] was 100 % of control. The T/C [4] was 104 % of control and the T/C [5] was 95 % of control.

For `O=S(=O)(CS(=O)(=O)C(F)(F)C(F)(F)C(F)(F)C(F)(F)F)C(F)(F)C(F)(F)C(F)(F)C(F)(F)F`, the T/C [6] was 114 % of control, the T/C [1] was 114 % of control and the T/C [3] was 106 % of control.

`OCC(O)C(O)C(O)C(O)C(O)CO` (centres undefined) was tested, and the T/C (dose: 100.0 mg/kg/injection, schedule: Q01DX010 (ip), vehicle: carboxymethylcellulose (CMC)) was 100 % of control, the T/C (dose: 100.0 mg/kg/injection, schedule: Q01DX010 (ip), vehicle: saline) was 95 % of control and the T/C (dose: 400.0 mg/kg/injection, schedule: Q01DX010 (ip), vehicle: carboxymethylcellulose (CMC)) was 100 % of control. For the same compound, the T/C (dose: 400.0 mg/kg/injection, schedule: Q01DX010 (ip), vehicle: saline) was 100 % of control.

For `O=C(CBr)CC(=O)Nc1ccccc1`, the T/C (dose: 12.5 mg/kg/injection, schedule: Q01DX009 (ip), vehicle: saline with Tween-80) was 100 % of control.

For `CC(C)CSc1ncnc2nc[nH]c12`, the T/C [7] was 90 % of control, the T/C [8] was 100 % of control and the T/C [9] was 104 % of control and 122 % of control. For the same compound, the T/C (dose: 100.0 mg/kg/injection, schedule: Q04DX003 (ip), vehicle: saline with Tween-80) was 104 % of control, the T/C (dose: 200.0 mg/kg/injection, schedule: Q04DX003 (ip), vehicle: saline with Tween-80) was 86 % of control and the T/C (dose: 400.0 mg/kg/injection, schedule: Q04DX003 (ip), vehicle: saline with Tween-80) was 86 % of control.

`CC(C)=CCC/C(C)=C/CNCCc1c[nH]c2ccccc12` was tested, and the T/C (dose: 3.12 mg/kg/injection, schedule: Q01DX009 (ip), vehicle: Klucel (hydroxypropylcellulose) (HPC)) was 117 % of control, the T/C (dose: 6.25 mg/kg/injection, schedule: Q01DX009 (ip), vehicle: Klucel (hydroxypropylcellulose) (HPC)) was 104 % of control and 117 % of control and the T/C (dose: 12.5 mg/kg/injection, schedule: Q01DX009 (ip), vehicle: Klucel (hydroxypropylcellulose) (HPC)) was 117 % of control. The T/C (dose: 25.0 mg/kg/injection, schedule: Q01DX009 (ip), vehicle: Klucel (hydroxypropylcellulose) (HPC)) was 120 % of control and the T/C (dose: 50.0 mg/kg/injection, schedule: Q01DX009 (ip), vehicle: Klucel (hydroxypropylcellulose) (HPC)) was 120 % of control.

For `BrC(Br)c1ccc2ccccc2n1`, the T/C (dose: 100.0 mg/kg/injection, schedule: Q01DX009 (ip), vehicle: Klucel (hydroxypropylcellulose) (HPC)) was 108 % of control, the T/C (dose: 100.0 mg/kg/injection, schedule: Q04DX003 (ip), vehicle: Klucel (hydroxypropylcellulose) (HPC)) was 100 % of control and the T/C (dose: 200.0 mg/kg/injection, schedule: Q01DX009 (ip), vehicle: Klucel (hydroxypropylcellulose) (HPC)) was 108 % of control. The T/C (dose: 200.0 mg/kg/injection, schedule: Q04DX003 (ip), vehicle: Klucel (hydroxypropylcellulose) (HPC)) was 91 % of control, the T/C (dose: 400.0 mg/kg/injection, schedule: Q01DX009 (ip), vehicle: Klucel (hydroxypropylcellulose) (HPC)) was 95 % of control and the T/C (dose: 400.0 mg/kg/injection, schedule: Q04DX003 (ip), vehicle: Klucel (hydroxypropylcellulose) (HPC)) was 91 % of control.

For `COc1cc2c(cc1OCc1ccccc1)C=CN(C(=O)c1ccccc1)C2C#N` (centres undefined), the T/C [10] was 105 % of control, the T/C (dose: 25.0 mg/kg/injection, schedule: Q04DX003 (ip), vehicle: saline) was 103 % of control and the T/C [6] was 92 % of control. The T/C [11] was 100 % of control, the T/C [1] was 93 % of control and the T/C [2] was 97 % of control. The T/C [3] was 90 % of control, the T/C [4] was 103 % of control and the T/C [12] was 96 % of control. For the same compound, the T/C [5] was 97 % of control.

`CCCCCCCOC(C[N+](=O)[O-])C(Cl)(Cl)Cl` (centres undefined) was tested, and the T/C (dose: 12.5 mg/kg/injection, schedule: Q01DX009 (ip), vehicle: saline) was 120 % of control, the T/C [10] was 120 % of control and the T/C (dose: 37.5 mg/kg/injection, schedule: Q04DX003 (ip), vehicle: saline) was 100 % of control. For the same compound, the T/C [6] was 120 % of control, the T/C (dose: 75.0 mg/kg/injection, schedule: Q04DX003 (ip), vehicle: saline) was 95 % of control and the T/C (dose: 150.0 mg/kg/injection, schedule: Q04DX003 (ip), vehicle: saline) was 95 % of control. For the same compound, the T/C (dose: 340.0 mg/kg/injection, schedule: Q04DX003 (ip), vehicle: saline) was 90 % of control.

`Cc1nc2ccccc2nc1CC(O)(c1ccccc1)c1ccccc1` was tested, and the T/C [8] was 97 % of control, the T/C [9] was 103 % of control and the T/C (dose: 200.0 mg/kg/injection, schedule: Q01DX009 (ip), vehicle: saline with Tween-80) was 100 % of control.

For `CC(=O)OCC(OC(C)=O)c1cc(/C=N/N(C(C)=O)c2ccccc2)nn1-c1ccccc1` (centres undefined), the T/C [7] was 101 % of control, the T/C [8] was 98 % of control and the T/C [9] was 96 % of control.

In the case of `Nc1ccc2cc(Cl)ccc2c1`, the T/C [9] was 90 % of control.

For `COC1/C=C/O[C@@]2(C)Oc3c(C)c(O)c4c(O)c(cc(O)c4c3C2=O)NC(=O)/C(C)=C\C=C\[C@H](C)C(O)[C@@H](C)[C@@H](O)[C@@H](C)[C@H](OC(C)=O)[C@@H]1C` (some centres undefined), the T/C [1] was 123 % of control, the T/C [3] was 114 % of control and the T/C [12] was 119 % of control.

With `CCCCCCC/C=N/N=C/CCCCCCC` the T/C (dose: 100.0 mg/kg/injection, schedule: Q01DX009 (ip), vehicle: other) was 100 % of control, the T/C (dose: 100.0 mg/kg/injection, schedule: Q04DX003 (ip), vehicle: other) was 109 % of control and the T/C (dose: 178.0 mg/kg/injection, schedule: Q01DX009 (ip), vehicle: other) was 122 % of control. For the same compound, the T/C (dose: 200.0 mg/kg/injection, schedule: Q04DX003 (ip), vehicle: other) was 109 % of control and the T/C (dose: 400.0 mg/kg/injection, schedule: Q01DX009 (ip), vehicle: other) was 104 % of control.

For `Cn1c(CC(O)(C(F)(F)F)C(F)(F)F)cc2ccccc21`, the T/C (dose: 100.0 mg/kg/injection, schedule: Q01DX001 (ip), vehicle: other) was 87 % of control and the T/C (dose: 400.0 mg/kg/injection, schedule: Q01DX001 (ip), vehicle: other) was 95 % of control.

For `CC(C)C1(C(C)C)OCCO1`, the T/C [11] was 87 % of control, the T/C [2] was 108 % of control and the T/C [4] was 100 % of control.

With `Cc1cc(C(C(N)=O)c2ccccc2)ccc1N(CCCl)CCCl` (centres undefined) the T/C (dose: 0.22 mg/kg/injection, schedule: Q01DX009 (ip), vehicle: Klucel (hydroxypropylcellulose) (HPC)) was 112 % of control, the T/C (dose: 0.33 mg/kg/injection, schedule: Q01DX009 (ip), vehicle: Klucel (hydroxypropylcellulose) (HPC)) was 108 % of control and the T/C (dose: 0.77 mg/kg/injection, schedule: Q01DX009 (ip), vehicle: Klucel (hydroxypropylcellulose) (HPC)) was 155 % of control. The T/C (dose: 2.34 mg/kg/injection, schedule: Q01DX009 (ip), vehicle: Klucel (hydroxypropylcellulose) (HPC)) was 154 % of control, the T/C (dose: 4.68 mg/kg/injection, schedule: Q01DX009 (ip), vehicle: Klucel (hydroxypropylcellulose) (HPC)) was 186 % of control and the T/C (dose: 6.0 mg/kg/injection, schedule: Q04DX003 (ip), vehicle: saline) was 118 % of control. For the same compound, the T/C (dose: 12.37 mg/kg/injection, schedule: Q01DX009 (ip), vehicle: Klucel (hydroxypropylcellulose) (HPC)) was 96 % of control and 205 % of control, the T/C (dose: 13.75 mg/kg/injection, schedule: Q04DX003 (ip), vehicle: Klucel (hydroxypropylcellulose) (HPC)) was 178 % of control and the T/C (dose: 18.75 mg/kg/injection, schedule: Q01DX009 (ip), vehicle: Klucel (hydroxypropylcellulose) (HPC)) was 103 % of control. For the same compound, the T/C (dose: 27.5 mg/kg/injection, schedule: Q04DX003 (ip), vehicle: Klucel (hydroxypropylcellulose) (HPC)) was 213 % of control, the T/C (dose: 28.12 mg/kg/injection, schedule: Q01DX009 (ip), vehicle: Klucel (hydroxypropylcellulose) (HPC)) was 110 % of control and the T/C (dose: 35.0 mg/kg/injection, schedule: Q04DX003 (ip), vehicle: Klucel (hydroxypropylcellulose) (HPC)) was 218 % of control. For the same compound, the T/C (dose: 55.0 mg/kg/injection, schedule: Q04DX003 (ip), vehicle: Klucel (hydroxypropylcellulose) (HPC)) was 272 % of control and 221 % of control and the T/C (dose: 80.0 mg/kg/injection, schedule: Q04DX003 (ip), vehicle: Klucel (hydroxypropylcellulose) (HPC)) was 272 % of control.

With `Nc1ncc(C(=O)O)c(N)n1` the T/C (dose: 0.75 mg/kg/injection, schedule: Q01DX009 (ip), vehicle: saline with Tween-80) was 87 % of control, the T/C (dose: 1.5 mg/kg/injection, schedule: Q01DX009 (ip), vehicle: saline with Tween-80) was 104 % of control and the T/C (dose: 3.0 mg/kg/injection, schedule: Q01DX009 (ip), vehicle: saline with Tween-80) was 91 % of control. For the same compound, the T/C (dose: 6.25 mg/kg/injection, schedule: Q01DX009 (ip), vehicle: saline with Tween-80) was 88 % of control, the T/C (dose: 12.5 mg/kg/injection, schedule: Q04DX003 (ip), vehicle: saline with Tween-80) was 100 % of control and the T/C [7] was 111 % of control. The T/C (dose: 25.0 mg/kg/injection, schedule: Q04DX003 (ip), vehicle: saline with Tween-80) was 100 % of control and the T/C (dose: 50.0 mg/kg/injection, schedule: Q04DX003 (ip), vehicle: saline with Tween-80) was 100 % of control.
